The values that follow come from patent US9994546B2, “Cyclopropylamines as LSD1 inhibitors” (Incyte Corporation, priority 2014, dated 2018).

For orientation: IC50 means the concentration needed to halve the response being measured. High values mean weaker potency in that assay, low ones greater potency in that assay.

Molecules are shown by their SMILES.

The assay deals with LSD-1 enzyme (Homo sapiens (Human), UniProt O60341). The assay can be described thus: LANCE LSD1/KDM1A demethylase assay (LSD1 histone demethylase biochemical assay). The conditions noted are these: 1 nM LSD-1 enzyme, 1 hour preincubation at 25° C., 0.4 μM biotin-labeled Histone H3 peptide substrate. As to the method:
LANCE LSD1/KDM1A demethylase assay—10 μL of 1 nM LSD-1 enzyme (ENZO BML-SE544-0050) in the assay buffer (50 mM Tris, pH 7.5, 0.01% Tween-20, 25 mM NaCl, 5 mM DTT) were preincubated for 1 hour at 25° C. with 0.8 μL compound/DMSO dotted in black 384 well polystyrene plates. […] After stopping the reactions plates were incubated for 30 minutes and read on a PHERAstar FS plate reader (BMG Labtech).
Background: In TR-FRET formats the signal depends on donor and acceptor labels being close together.
For the compound `N#CCC1(N2CCC(N[C@@H]3C[C@H]3c3ccccc3)CC2)CN(C2CCOCC2)C1` [Example 75, [3-(4-{[(1R,2S)-2-phenylcyclopropyl]amino}piperidin-1-yl)-1-(tetrahydro-2H-pyran-4-yl)azetidin-3-yl]acetonitrile], the IC50 is no more than 0.1 µM.
Under `O=C(O)CC1(N2CCC(CN[C@@H]3C[C@H]3c3ccccc3)(Cc3ccc(F)cc3)CC2)CCC1` [Example 53, {1-[4-(4-fluorobenzyl)-4-({[(1R,2S)-2-phenylcyclopropyl]amino}methyl)piperidin-1-yl]cyclobutyl}acetic acid] stands no more than 0.1 µM.
Under `N#CCC1(N2CCC(N[C@@H]3C[C@H]3c3ccccc3)CC2)CNC1` (relative stereo) [Example 3, (3-{4-[(trans-2-Phenylcyclopropyl)amino]piperidin-1-yl}azetidin-3-yl)acetonitrile] stands no more than 0.1 µM; under `CCS(=O)(=O)N1CC(CC#N)(N2CCC(CN[C@@H]3C[C@H]3c3ccccc3)CC2)C1` (relative stereo) [Example 31, [1-(Ethylsulfonyl)-3-(4-{[(trans-2-phenylcyclopropyl)amino]methyl}piperidin-1-yl)azetidin-3-yl]acetonitrile], 0.1 to 0.5 µM.
Under `N#CCC1(N2CCC(N[C@@H]3C[C@H]3c3ccccc3)CC2)CN(CCO)C1` [Example 74, [1-(2-hydroxyethyl)-3-(4-{[(1R,2S)-2-phenylcyclopropyl]amino}piperidin-1-yl)azetidin-3-yl]acetonitrile] stands no more than 0.1 µM; under `CN(C)S(=O)(=O)N1CC(CC#N)(N2CCC(N[C@@H]3C[C@H]3c3ccccc3)CC2)C1` [Example 63, 3-(cyanomethyl)-N,N-dimethyl-3-(4-{[(1R,2S)-2-phenylcyclopropyl]amino}piperidin-1-yl)azetidine-1-sulfonamide], no more than 0.1 µM; under `N#CCC1(N2CCC(N[C@@H]3C[C@H]3c3ccccc3)CC2)CN(C(=O)c2cn[nH]c2)C1` [Example 112, [3-(4-{[(1R,2S)-2-phenylcyclopropyl]amino}piperidin-1-yl)-1-(1H-pyrazol-4-ylcarbonyl)azetidin-3-yl]acetonitrile], no more than 0.1 µM.
Turning to `CN(C)C(=O)N1CCC(CC#N)(N2CC(CN[C@@H]3C[C@H]3c3ccccc3)C2)CC1` (relative stereo) [Example 23, 4-(Cyanomethyl)-N,N-dimethyl-4-(3-{[(trans-2-phenylcyclopropyl)amino]methyl}azetidin-1-yl)piperidine-1-carboxamide], the IC50 was no more than 0.1 µM.
Under `O=C(O)CC1(N2CCC(N[C@@H]3C[C@H]3c3ccccc3)CC2)CN(CCC(F)(F)F)C1` [Example 130, [3-(4-{[(1R,2S)-2-phenylcyclopropyl]amino}piperidin-1-yl)-1-(3,3,3-trifluoropropyl)azetidin-3-yl]acetic acid] stands no more than 0.1 µM.
`N#CCC1(N2CCC(N[C@@H]3C[C@H]3c3ccccc3)CC2)CN(C(=O)c2cncs2)C1` [Example 109, [3-(4-{[(1R,2S)-2-phenylcyclopropyl]amino}piperidin-1-yl)-1-(1,3-thiazol-5-ylcarbonyl)azetidin-3-yl]acetonitrile] registered an IC50 of no more than 0.1 µM.
Under `N#CCC1(N2CCC(N[C@@H]3C[C@H]3c3ccccc3)CC2)CN(C(=O)N2CCC(O)CC2)C1` [Example 87, [1-[(4-hydroxypiperidin-1-yl)carbonyl]-3-(4-{[(1R,2S)-2-phenylcyclopropyl]amino}piperidin-1-yl)azetidin-3-yl]acetonitrile] stands no more than 0.1 µM.
`CCS(=O)(=O)N1CC(CC(=O)NC)(N2CCC(N[C@@H]3C[C@H]3c3ccccc3)CC2)C1` [Example 71, 2-[1-(ethylsulfonyl)-3-(4-{[(1R,2S)-2-phenylcyclopropyl]amino}piperidin-1-yl)azetidin-3-yl]-N-methylacetamide] yielded a half-inhibitory concentration (IC50) of no more than 0.1 µM.
Under `N#CCC1(N2CCC(N[C@@H]3C[C@H]3c3ccccc3)CC2)CN(c2ccccc2C#N)C1` (relative stereo) [Example 12, 2-(3-(Cyanomethyl)-3-{4-[(trans-2-phenylcyclopropyl)amino]piperidin-1-yl}azetidin-1-yl)benzonitrile] stands no more than 0.1 µM; under `N#CCC1(N2CC(CN[C@@H]3C[C@H]3c3ccccc3)C2)CCN(S(=O)(=O)c2ccccc2)CC1` (relative stereo) [Example 21, [4-(3-{[(trans-2-Phenylcyclopropyl)amino]methyl}azetidin-1-yl)-1-(phenylsulfonyl)piperidin-4-yl]acetonitrile], no more than 0.1 µM.
Under `CN(C)C(=O)CC1(N2CCC(C)(CN[C@@H]3C[C@H]3c3ccccc3)CC2)CCC1` [Example 56, N,N-dimethyl-2-{1-[4-methyl-4-({[(1R,2S)-2-phenylcyclopropyl]amino}methyl)piperidin-1-yl]cyclobutyl}acetamide] stands no more than 0.1 µM; under `N#CCC1(N2CCC(N[C@@H]3C[C@H]3c3ccccc3)CC2)CN(C(=O)[C@H]2CC[C@@H](O)CC2)C1` [Example 83, [1-[(cis-4-hydroxycyclohexyl)carbonyl]-3-(4-{[(1R,2S)-2-phenylcyclopropyl]amino}piperidin-1-yl)azetidin-3-yl]acetonitrile], no more than 0.1 µM; under `CNC(=O)CN1CC(CC#N)(N2CCC(N[C@@H]3C[C@H]3c3ccccc3)CC2)C1` [Example 78, 2-[3-(cyanomethyl)-3-(4-{[(1R,2S)-2-phenylcyclopropyl]amino}piperidin-1-yl)azetidin-1-yl]-N-methylacetamide], no more than 0.1 µM.
Under `CN1CC(CC#N)(N2CCC(N[C@@H]3C[C@H]3c3ccccc3)CC2)C1` (relative stereo) [Example 2, (1-Methyl-3-{4-[(trans-2-phenylcyclopropyl)amino]piperidin-1-yl}azetidin-3-yl)acetonitrile] stands no more than 0.1 µM.
Compound `CNC(=O)CC1(N2CCC(N[C@@H]3C[C@H]3c3ccccc3)CC2)CN(C(=O)N(C)C)C1` [Example 97, N,N-dimethyl-3-[2-(methylamino)-2-oxoethyl]-3-(4-{[(1R,2S)-2-phenylcyclopropyl]amino}piperidin-1-yl)azetidine-1-carboxamide] gave a concentration for half-maximal inhibition (IC50) of no more than 0.1 µM.
For the compound `N#CCC1(N2CCC(N[C@@H]3C[C@H]3c3ccccc3)CC2)CN(C(=O)C2(O)CCCC2)C1` [Example 85, [1-[(1-hydroxycyclopentyl)carbonyl]-3-(4-{[(1R,2S)-2-phenylcyclopropyl]amino}piperidin-1-yl)azetidin-3-yl]acetonitrile], the half-maximal inhibitory concentration (IC50) was no more than 0.1 µM.
Under `N#CCC1(N2CCC(CN[C@@H]3C[C@H]3c3ccccc3)CC2)CN(c2ncccc2C#N)C1` (relative stereo) [Example 34, 2-[3-(Cyanomethyl)-3-(4-{[(trans-2-phenylcyclopropyl)amino]methyl}piperidin-1-yl)azetidin-1-yl]nicotinonitrile] stands no more than 0.1 µM; under `N#CCC1(N2CCC(N[C@@H]3C[C@H]3c3ccccc3)CC2)CN(C2CC(O)C2)C1` (stereo partly drawn) [Example 106, [1-(3-hydroxycyclobutyl)-3-(4-{[(1R,2S)-2-phenylcyclopropyl]amino}piperidin-1-yl)azetidin-3-yl]acetonitrile], no more than 0.1 µM; under `Cn1cc(N2CC(CC#N)(N3CCC(N[C@@H]4C[C@H]4c4ccccc4)CC3)C2)cn1` [Example 98, [1-(1-methyl-1H-pyrazol-4-yl)-3-(4-{[(1R,2S)-2-phenylcyclopropyl]amino}piperidin-1-yl)azetidin-3-yl]acetonitrile], no more than 0.1 µM.
Under `N#CCC1(N2CCC(CN[C@@H]3C[C@H]3c3ccccc3)CC2)CN(C(=O)Nc2cccc(Cl)c2F)C1` (relative stereo) [Example 43, N-(3-Chloro-2-fluorophenyl)-3-(cyanomethyl)-3-(4-{[(trans-2-phenylcyclopropyl)amino]methyl}piperidin-1-yl)azetidine-1-carboxamide] stands no more than 0.1 µM.
`N#CCC1(N2CCC(CN[C@@H]3C[C@H]3c3ccccc3)CC2)CN(C(=O)c2cc(F)cc(F)c2)C1` (relative stereo) [Example 44, [1-(3,5-Difluorobenzoyl)-3-(4-{[(trans-2-phenylcyclopropyl)amino]methyl}piperidin-1-yl)azetidin-3-yl]acetonitrile]: the IC50 is no more than 0.1 µM.
Under `CNC(=O)CC1(N2CCC(N[C@@H]3C[C@H]3c3ccccc3)CC2)CN(C(=O)OC)C1` [Example 95, methyl 3-[2-(methylamino)-2-oxoethyl]-3-(4-{[(1R,2S)-2-phenylcyclopropyl]amino}piperidin-1-yl)azetidine-1-carboxylate] stands no more than 0.1 µM.
Under `C[C@H](NC(=O)c1cc(F)c(N2CC(CC#N)(N3CC(CNC4CC4c4ccccc4)C3)C2)cc1F)C(F)(F)F` (stereo partly drawn) [Example 27, 4-(3′-(Cyanomethyl)-3-{[(trans-2-phenylcyclopropyl)amino]methyl}-1,3′-biazetidin-1′-yl)-2,5-difluoro-N-[(1S)-2,2,2-trifluoro-1-methylethyl]benzamide] stands no more than 0.1 µM.
Under `CCS(=O)(=O)N1CC(CCO)(N2CCC(N[C@@H]3C[C@H]3c3ccccc3)CC2)C1` [Example 92, 2-[1-(ethylsulfonyl)-3-(4-{[(1R,2S)-2-phenylcyclopropyl]amino}piperidin-1-yl)azetidin-3-yl]ethanol] stands no more than 0.1 µM.
Take `N#CCC1(N2CCC(CN[C@@H]3C[C@H]3c3ccccc3)CC2)CNC1` (relative stereo) [Example 33, [3-(4-{[(trans-2-Phenylcyclopropyl)amino]methyl}piperidin-1-yl)azetidin-3-yl]acetonitrile]: the IC50 was no more than 0.1 µM.
Under `N#CCC1(N2CCC(N[C@@H]3C[C@H]3c3ccccc3)CC2)CN(C(=O)N2CCOCC2)C1` [Example 86, [1-(morpholin-4-ylcarbonyl)-3-(4-{[(1R,2S)-2-phenylcyclopropyl]amino}piperidin-1-yl)azetidin-3-yl]acetonitrile] stands no more than 0.1 µM.
